Test results from patent US9790169B2, “IDO inhibitors” (BRISTOL-MYERS SQUIBB COMPANY, priority 2015, dated 2017).
pIC50: −log10 of the molar value.

biological target: human IDO1 (Homo sapiens, UniProt P14902); assay: Assessment of human IDO-1 inhibitory activity in HEK cells (human IDO1/HEK293 cells, kynurenine read-out with Ehrlich reagent, absorbance 490 nm); type: cell-based; set-up: expressed in transfected cells; settings: HEK Human IDO-1 cellular assay
In short: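 Kynurenine output from stably IDO1-transfected HEK293 cells (10,000/well, phenol red-free RPMI, 10% FBS) after 20 h compound exposure at 37 °C. The reaction was stopped with 0.2% TCA and heated 30 min at 50 °C, then the supernatant was mixed with Ehrlich reagent and read at 490 nm. IC50 was set against DMSO and a 500 nM reference standard as 0 and 100% inhibition.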

human IDO1, sequence (P14902 whole entry): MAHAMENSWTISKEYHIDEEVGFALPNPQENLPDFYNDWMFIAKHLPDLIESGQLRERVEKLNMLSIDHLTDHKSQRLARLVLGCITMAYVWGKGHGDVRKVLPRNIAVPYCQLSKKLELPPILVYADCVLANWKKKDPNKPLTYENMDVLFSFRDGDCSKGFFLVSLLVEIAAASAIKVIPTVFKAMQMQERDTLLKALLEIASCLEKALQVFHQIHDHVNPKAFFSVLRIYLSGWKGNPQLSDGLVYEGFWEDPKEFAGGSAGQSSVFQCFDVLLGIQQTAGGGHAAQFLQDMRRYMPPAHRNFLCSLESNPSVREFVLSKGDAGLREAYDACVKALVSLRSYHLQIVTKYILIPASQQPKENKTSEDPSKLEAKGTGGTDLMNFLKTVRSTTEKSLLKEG

Compound | pIC50
CCN(c1ccc(C(C)CC(=O)O)cc1Nc1cnc(C)nc1)C1CCOCC1 (single isomer, unassigned) [Example 636, 3-(4-(ethyl(tetrahydro-2H-pyran-4-yl)amino)-3-((2-methylpyrimidin-5-yl)amino)phenyl)butanoic acid] | < 7.30
COCC(CC(=O)O)c1ccc(N(CC(C)C)C2CCCCC2)c(NC(=O)Nc2ccc(OC(F)(F)F)cc2)c1 (single isomer, unassigned) [Example 1243, 3-(4-(Cyclohexyl(isobutyl)amino)-3-(3-(4-(trifluoromethoxy)phenyl)ureido)phenyl)-4-methoxybutanoic acid] | > 7.30
CC[C@@H](CC(=O)O)c1ccc(N2C[C@@H](C)O[C@@H](C)C2)c(NC(=O)Nc2ccc(C)cc2)c1 (single isomer, unassigned) [Example 754] | < 7.30
COCC(CC(=O)O)c1cc(F)c(N(CC(C)C)C2CCCCC2)c(NC(=O)Nc2ccc(OC(F)(F)F)cc2)c1 (single isomer, unassigned) [Example 1163, 3-(4-(cyclohexyl(isobutyl)amino)-3-fluoro-5-(3-(4-(trifluoromethoxy)phenyl)ureido)phenyl)-4-methoxybutanoic acid] | > 8.30
CCC(CC(=O)O)c1ccc(N2CCOC[C@H]2C(C)C)c(NC(=O)Nc2ccc(Cl)cc2F)c1 (single isomer, unassigned) [Example 896] | > 7.30
CCC(CC(=O)O)c1ccc(N(CC2CC2)C2CCOCC2)c(NC(=O)Nc2ccc(C)cc2)c1 (stereo not drawn) [Example 698] | > 7.30
CCOc1ncc(Nc2cc([C@@H](CC)CC(=O)O)ccc2N2CCOC[C@@H]2C(C)C)cn1 (single isomer, unassigned) [Example 79] | < 7.30
CCC(CC(=O)O)c1ccc(N2CCOC[C@H]2C(C)C)c(Nc2ccc(C#N)cc2)c1 (single isomer, unassigned) [Example 899] | > 8.30
CCC(CC(=O)O)c1ccc(N2C[C@@H]3C[C@H]2CN3C(=O)OC(C)(C)C)c(Nc2ccc(C)cc2)c1 (single isomer, unassigned) [Example 447] | > 7.30
CC[C@H](CC(=O)O)c1ccc(N(CC)C2CCCCC2)c(Nc2ccc(C#N)cc2)c1 (single isomer, unassigned) [Example 289] | > 8.30
CC[C@@H](CC(=O)O)c1ccc(N(CC(C)C)C2CCS(=O)(=O)CC2)c(NC(=O)Nc2ccc(OC)cc2F)c1 (single isomer, unassigned) [Example 216] | < 7.30
CCC(CC(=O)O)c1ccc(N(CC(C)C)C2CCCCC2)c(Nc2ccc(Cl)c(OC(F)F)c2)c1 (single isomer, unassigned) [Example 642] | > 8.30
CCCN(CC1CC1)c1ccc(C(CC)CC(=O)O)cc1Nc1ccc2nc(C)sc2c1 (single isomer, unassigned) [Example 661, 3-(4-((cyclopropylmethyl)(propyl)amino)-3-((2-methylbenzo[d]thiazol-6-yl)amino)phenyl) pentanoic acid] | < 7.30
CC[C@H](CC(=O)O)c1ccc(N2CCOC[C@@H]2C(C)C)c(Nc2ccc(Cl)cc2)c1 (single isomer, unassigned) [Example 89] | > 8.30
CCc1ccc(Nc2cc(C(C)(C)CC(=O)O)ccc2N2C[C@@H](C)O[C@@H](C)C2)cc1 [Example 734, 3-(4-((2S,6R)-2,6-dimethylmorpholino)-3-((4-ethylphenyl)amino)phenyl)-3-methylbutanoic acid] | < 7.30
CC[C@@H](CC(=O)O)c1ccc(N(CC)C2CCOCC2)c(NC(=O)Nc2ccc(OC)cc2)c1 (single isomer, unassigned) [Example 492] | > 7.30
CCCN(c1ccc([C@@H](CC)CC(=O)O)cc1Nc1ccc2nc(C)sc2c1)C1CCOCC1 (single isomer, unassigned) [Example 537] | > 8.30
CCN(c1ccc([C@@H](COC)CC(=O)O)cc1Nc1cnc(OC)nc1)C1CCOCC1 (single isomer, unassigned) [Example 350] | > 7.30
CCC(CC(=O)O)c1ccc(N(CC(C)C)C2CCCCC2)c(NC(=O)Cc2cc(F)ccc2F)c1 (single isomer, unassigned) [Example 1098 E1] | > 8.30
CCC(CC(=O)O)c1ccc(N2CCC[C@@H]2C(C)(C)O)c(Nc2ccc(Cl)cc2)c1 (single isomer, unassigned) [Example 773] | > 7.30

Compound | pIC50
CC[C@H](CC(=O)O)c1ccc(N(CC(C)C)C2CCS(=O)(=O)CC2)c(NC(=O)Nc2ccc(OC)cc2F)c1 (single isomer, unassigned) [Example 211] | < 7.30
CCC(CC(=O)O)c1ccc(N2CCC[C@H]2C(C)(C)O)c(Nc2ccc3c(c2)OC(F)(F)O3)c1 (single isomer, unassigned) [Example 821] | > 7.30
COCC(CC(=O)O)c1cc(F)c(N(CC(C)C)C2CCCCC2)c(NC(=O)Nc2ccc(OC)cc2F)c1 (single isomer, unassigned) [Example 1152, 3-(4-(Cyclohexyl(isobutyl)amino)-3-fluoro-5-(3-(2-fluoro-4-methoxyphenyl)ureido)phenyl)-4-methoxybutanoic acid] | > 8.30
CCOc1ncc(Nc2cc([C@@H](CC)CC(=O)NS(C)(=O)=O)ccc2N(CC)C2CCOCC2)cn1 (stereo in doubt) [Example 1076, 3-(3-((2-Ethoxypyrimidin-5-yl)amino)-4-(ethyl(tetrahydro-2H-pyran-4-yl)amino)phenyl)-N-(methylsulfonyl)pentanamide] | > 7.30
CCN(c1ccc([C@@H](COC)CC(=O)NS(C)(=O)=O)cc1Nc1ccc(C#N)cc1)C1CCOCC1 (stereo in doubt) [Example 1077, 3-(3-((4-Cyanophenyl)amino)-4-(ethyl(tetrahydro-2H-pyran-4-yl)amino)phenyl)-4-methoxy-N-(methylsulfonyl)butanamide] | > 7.30
CC[C@@H](CC(=O)O)c1ccc(N2CCC[C@H]2C(C)(C)O)c(NC(=O)Nc2ccc(C)cc2)c1 (single isomer, unassigned) [Example 769] | < 7.30
CCC(CC(=O)O)c1ccc(N(CC(C)C)C2CCCCC2)c(Nc2ccc(Cl)c(OCC3CC3)c2)c1 (single isomer, unassigned) [Example 645, 3-(3-((4-chloro-3-(cyclopropylmethoxy)phenyl)amino)-4-(cyclohexyl (isobutyl)amino)phenyl) pentanoic acid] | > 7.30
CCOc1ncc(Nc2cc(C(CC(=O)O)c3ccccc3)ccc2N(CC)C2CCOCC2)cn1 (single isomer, unassigned) [Example 578, 3-(3-((2-Ethoxypyrimidin-5-yl)amino)-4-(ethyl(tetrahydro-2H-pyran-4-yl)amino)phenyl)-3-phenylpropanoic acid] | > 7.30
CCN(c1ccc(C(CC(=O)O)c2ccccc2)cc1Nc1ccc2nc(C)sc2c1)C1CCOCC1 (single isomer, unassigned) [Example 579, 3-(4-(ethyl(tetrahydro-2H-pyran-4-yl)amino)-3-((2-methylbenzo[d]thiazol-6-yl)amino)phenyl)-3-phenylpropanoic acid] | < 7.30
CCN(c1ccc(C(CC(=O)O)c2ccccc2)cc1Nc1ccc(OC(F)F)cc1)C1CCOCC1 (single isomer, unassigned) [Example 583, 3-(3-((4-(difluoromethoxy)phenyl)amino)-4-(ethyl(tetrahydro-2H-pyran-4-yl)amino)phenyl)-3-phenylpropanoic acid] | > 7.30
COCC(CC(=O)O)c1cc(F)c(N(CC(C)C)CC(C)C)c(NC(=O)Nc2ccc(C)cc2)c1 (single isomer, unassigned) [Example 1186, 3-(4-(Diisobutylamino)-3-fluoro-5-(3-(p-tolyl)ureido)phenyl)-4-methoxybutanoic acid] | > 8.30
CC(CC(=O)O)c1ccc(N2C[C@@H](C)O[C@@H](C)C2)c(Nc2ccc(Cl)cc2)c1 (single isomer, unassigned) [Example 739] | < 7.30
CCC(CC(=O)O)c1ccc(N(CC(C)C)C2CCCCC2)c(Nc2ccc3nc(C)sc3c2)c1 (single isomer, unassigned) [Example 305, 3-(4-(cyclohexyl(isobutyl)amino)-3-((2-methylbenzo [d]thiazol-6-yl)amino)phenyl)pentanoic acid] | > 8.30
Cc1cc(CC(=O)Nc2cc(C(CC(=O)O)C3CC3)ccc2N(CC(C)C)C2CCCCC2)no1 (single isomer, unassigned) [Example 1251, 3-(4-(Cyclohexyl(isobutyl)amino)-3-(2-(5-methylisoxazol-3-yl)acetamido)phenyl)-3-cyclopropylpropanoic acid] | > 7.30
CC(CC(=O)O)c1ccc(N2CCC[C@H]2C(C)(C)O)c(Nc2ccc(F)cc2)c1 (single isomer, unassigned) [Example 798] | < 7.30
CCC(CC(=O)O)c1ccc(N(CC(C)C)C2CCCCC2)c(Nc2ccc(Cl)cc2F)c1 (single isomer, unassigned) [Example 307, 3-(3-((4-chloro-2-fluorophenyl)amino)-4-(cyclohexyl(isobutyl)amino)phenyl)pentanoic acid] | > 7.30
CCOc1ccc(Nc2cc(C(CC)CC(=O)O)ccc2N(CC(C)C)C2CCCCC2)cc1 (single isomer, unassigned) [Example 313, 3-(4-(cyclohexyl(isobutyl)amino)-3-((4-ethoxyphenyl)amino)phenyl)pentanoic acid] | > 8.30
CCC(CC(=O)O)c1ccc(N(CC)C2CCOCC2)c(NC(=O)Nc2ccc(OC)cc2F)c1 (racemic) [Example 608, 3-(4-(Ethyl(tetrahydro-2H-pyran-4-yl)amino)-3-(3-(2-fluoro-4-methoxyphenyl)ureido)phenyl)pentanoic acid] | > 8.30
COCC(CC(=O)O)c1ccc(N(CC2CC2)C2CCOCC2)c(Nc2ccc(C#N)cc2)c1 (single isomer, unassigned) [Example 691, 3-(3-((4-cyanophenyl)amino)-4-((cyclopropylmethyl) (tetrahydro-2H-pyran-4-yl)amino)phenyl)-4-methoxybutanoic acid] | > 8.30
